Experimental data: US9783556B2, “Kinase inhibitors” (RESPIVERT LIMITED, priority 2012, dated 2017)
Read-outs that look alike come from different tables or passages of the source.

Experiments:
PBMCs [1] = assay: LPS-induced TNFα/IL-8 release in PBMC cells; format: cell-based; details: Homo sapiens, LPS-stimulated PBMCs
Description: Peripheral blood mononuclear cells (PBMCs) from healthy subjects are separated from whole blood using a density gradient (Lymphoprep, Axis-Shield Healthcare). The PBMCs are seeded in 96 well plates and treated with compounds at the desired concentration for 2 hours before addition of 1 ng/mL LPS (Escherichia Coli 0111:B4 from Sigma Aldrich) for 24 hours under normal tissue culture conditions (37° C., 5% CO2). The supernatant is harvested for determination of IL-8 and TNFα concentrations by sandwich ELISA (Duo-set, R&D systems) and read on the fluorescence microplate reader (Varioskan® Flash, ThermoFisher Scientific). The concentration at 50% inhibition (IC50) of IL-8 and TNFα production is calculated from the dose response curve.

GSK 3α = GSK 3α (Homo sapiens (Human), UniProt P49840); assay: GSK 3α enzyme inhibition (Z-LYTE FRET); format: biochemical; details: read-out: IC50 Values for Enzyme Inhibition GSK3α
GSK 3α, sequence (P49840 whole entry): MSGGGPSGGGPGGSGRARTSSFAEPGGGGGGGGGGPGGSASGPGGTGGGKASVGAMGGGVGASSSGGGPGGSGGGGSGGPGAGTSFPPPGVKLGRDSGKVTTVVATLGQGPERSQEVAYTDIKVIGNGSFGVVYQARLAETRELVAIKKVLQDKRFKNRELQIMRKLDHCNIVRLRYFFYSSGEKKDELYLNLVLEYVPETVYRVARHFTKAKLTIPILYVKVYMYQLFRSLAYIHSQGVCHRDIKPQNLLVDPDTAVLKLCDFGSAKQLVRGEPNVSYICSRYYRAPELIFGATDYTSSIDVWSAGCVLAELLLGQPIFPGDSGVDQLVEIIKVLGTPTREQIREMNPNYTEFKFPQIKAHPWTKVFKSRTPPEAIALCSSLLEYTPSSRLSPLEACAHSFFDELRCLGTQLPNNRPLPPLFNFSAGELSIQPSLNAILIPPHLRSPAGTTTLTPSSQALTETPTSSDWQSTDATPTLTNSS
Description: (§1) The enzyme inhibitory activities of compounds disclosed herein are determined by FRET using synthetic peptides labelled with both donor and acceptor fluorophores (Z-LYTE, Invitrogen Ltd., Paisley, UK).
The following two assay variants can be used for determination of GSK 3α inhibition.
The inhibitory activities of compounds of the invention against the GSK 3α enzyme isoform (Invitrogen), are evaluated by determining the level of activation/phosphorylation of the target peptide. The GSK3-α protein (500 ng/mL, 2.5 μL) is mixed with the test compound (2.5 μL at either 4 μg/mL, 0.4 μg/mL, 0.04 μg/mL, or 0.004 μg/mL) for 2 hr at RT. The FRET peptide (8 μM, 2.5 μL), which is a phosphorylation target for GSK3α, and ATP (40 μM, 2.5 μL) are then added to the enzyme/compound mixture and the resulting mixture incubated for 1 hr. Development reagent (protease, 5 μL) is added for 1 hr prior to detection in a fluorescence microplate reader (Varioskan® Flash, ThermoFisher Scientific).
(§2) In all cases, the site-specific protease cleaves non-phosphorylated peptide only and eliminates the FRET signal. Phosphorylation levels of each reaction are calculated using the ratio of coumarin emission (donor) over fluorescein emission (acceptor), for which high ratios indicate high phosphorylation and low ratios indicate low phosphorylation levels. The percentage inhibition of each reaction is calculated relative to non-inhibited control and the 50% inhibitory concentration (IC50 value) is then calculated from the concentration-response curve.
This method follows the same steps as Method 1 above, but utilises a shorter period of mixing of the test compound (105 minutes instead of 2 hours) with the GSK3-α protein.

Syk = Syk (Homo sapiens (Human), UniProt P43405); assay: Syk enzyme inhibition (Z-LYTE FRET); format: biochemical
Description: as §1
(§3) The inhibitory activities of compounds of the invention against c-Src and Syk enzymes (Invitrogen), are evaluated in a similar fashion to that described hereinabove. The relevant enzyme (3000 ng/mL or 2000 ng/mL respectively, 2.5 μL) is incubated with the test compound (either 4 μg/mL, 0.4 μg/mL, 0.04 μg/mL, or 0.004 μg/mL, 2.5 μL each) for 2 hr at RT. The FRET peptides (8 μM, 2.5 μL), and appropriate ATP solutions (2.5 μL, 800 μM for c-Src, and 60 μM ATP for Syk) are then added to the enzymes/compound mixtures and incubated for 1 hr. Development reagent (protease, 5 μL) is added for 1 hr prior to detection in a fluorescence microplate reader (Varioskan® Flash, ThermoFisher Scientific).
as §2

d-U937 cells = assay: LPS-induced TNFα/IL-8 release in d-U937 cells; format: cell-based; details: Homo sapiens, dU937, LPS-stimulated d-U937 cells
Description: U937 cells, a human monocytic cell line, are differentiated to macrophage-type cells by incubation with phorbol myristate acetate (PMA; 100 ng/mL) for 48 to 72 hr. Cells are pre-incubated with final concentrations of test compound for 2 hr and are then stimulated with 0.1 μg/mL of LPS (from E. Coli: O111:B4, Sigma) for 4 hr. The supernatant is collected for determination of TNFα and IL-8 concentrations by sandwich ELISA (Duo-set, R&D systems). The inhibition of TNFα production is calculated as a percentage of that achieved by 10 μg/mL of BIRB796 at each concentration of test compound by comparison against vehicle control. The relative 50% effective concentration (REC50) is determined from the resultant concentration-response curve. The inhibition of IL-8 production is calculated at each concentration of test compound by comparison with vehicle control. The 50% inhibitory concentration (IC50) is determined from the resultant concentration-response curve.

PBMCs [2] = assay: IL-2 and IFN gamma release in CD3/CD28 stimulated PBMC cells; format: cell-based; details: Homo sapiens, IL-2, read-out: IC50 Values for Inhibition of Cytokine Release PBMCs IL-2
Description: PBMCs from healthy subjects are separated from whole blood using a density gradient (Lymphoprep, Axis-Shield Healthcare). Cells are added to a 96 well plate pre-coated with a mixture of CD3/CD38 monoclonal antibodies (0.3 μg/mL eBioscience and 3 μg/mL BD Pharmingen respectively). Compound at the desired concentration is then added to the wells and the plate left for 3 days under normal tissue culture conditions. Supernatants are harvested and IL-2 and IFN gamma release determined by Sandwich ELISA (Duo-set, R&D System). The IC50 is determined from the dose response curve.

c-Src = c-Src (Homo sapiens (Human), UniProt P12931); assay: c-Src enzyme inhibition (Z-LYTE FRET); format: biochemical
c-Src, sequence (P12931 whole entry, looked up): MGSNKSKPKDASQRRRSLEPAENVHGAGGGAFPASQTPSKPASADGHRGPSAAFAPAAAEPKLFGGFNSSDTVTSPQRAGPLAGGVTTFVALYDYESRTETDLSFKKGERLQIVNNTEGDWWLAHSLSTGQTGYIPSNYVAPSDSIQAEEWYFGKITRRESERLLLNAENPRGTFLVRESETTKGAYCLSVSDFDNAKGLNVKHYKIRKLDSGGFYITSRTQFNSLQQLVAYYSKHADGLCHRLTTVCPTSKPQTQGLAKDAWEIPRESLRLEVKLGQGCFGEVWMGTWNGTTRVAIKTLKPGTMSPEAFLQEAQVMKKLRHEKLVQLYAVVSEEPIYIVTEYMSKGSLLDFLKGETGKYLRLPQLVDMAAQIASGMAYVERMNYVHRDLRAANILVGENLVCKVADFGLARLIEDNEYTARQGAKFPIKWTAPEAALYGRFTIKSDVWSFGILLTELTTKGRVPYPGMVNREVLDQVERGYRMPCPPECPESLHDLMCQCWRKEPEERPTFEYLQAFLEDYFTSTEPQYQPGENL
Description: as §1, §3, §2

HT29 cells = assay: IL-1β-induced IL-8 release in HT29 cells; format: cell-based; details: Homo sapiens, HT-29, IL-1β-stimulated HT29 cells, read-out: IC50 Values for Inhibition of Cytokine Release HT29 cells IL-8
Description: HT29 cells, a human colon adenocarcinoma cell line, are plated in a 96 well plate (24 hrs) and pre-treated with compounds at the desired concentration for 2 hours before addition of 5 ng/mL of IL-1β (Abcam) for 24 hours. Supernatants are harvested for IL-8 quantification by Sandwich ELISA (Duo-set, R&D System). The IC50 is determined from the dose response curve.

[3] = molecular target: p38 MAPKα isoform (MAPK14) (Homo sapiens (Human), UniProt Q16539); assay: p38 MAPKα enzyme inhibition (Z-LYTE FRET); format: biochemical
p38 MAPKα isoform (MAPK14), sequence (Q16539 whole entry, canonical isoform): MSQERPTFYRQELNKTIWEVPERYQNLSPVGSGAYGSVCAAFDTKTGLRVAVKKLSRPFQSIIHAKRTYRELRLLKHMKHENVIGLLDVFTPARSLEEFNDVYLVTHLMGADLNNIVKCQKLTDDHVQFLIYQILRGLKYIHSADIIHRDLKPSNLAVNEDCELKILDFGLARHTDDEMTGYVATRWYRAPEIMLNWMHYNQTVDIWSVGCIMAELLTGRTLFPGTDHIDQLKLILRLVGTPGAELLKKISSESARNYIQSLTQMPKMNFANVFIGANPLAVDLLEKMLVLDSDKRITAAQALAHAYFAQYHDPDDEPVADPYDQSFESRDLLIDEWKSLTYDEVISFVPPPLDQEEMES
Description: as §1
The following two assay variants can be used for determination of p38 MAPKα inhibition.
The inhibitory activities of test compounds against the p38 MAPKα isoform (MAPK14: Invitrogen), are evaluated indirectly by determining the level of activation/phosphorylation of the down-stream molecule, MAPKAP-K2. The p38 MAPKα protein (80 ng/mL, 2.5 μL) is mixed with the test compound (2.5 μL of either 4 μg/mL, 0.4 μg/mL, 0.04 μg/mL or 0.004 μg/mL) for 2 hr at RT. […] The mixture is incubated for 1 hr at RT. Development reagent (protease, 5 μL) is added for 1 hr prior to detection in a fluorescence microplate reader (Varioskan® Flash, ThermoFisher Scientific).
This method follows the same steps as Method 1 above, but utilises a higher concentration of the p38 MAPKα protein (2.5 μL of 200 ng/mL protein instead of 2.5 μL of 80 ng/mL protein) for mixing with the test compound.
as §2

[4] = IL-8, read-out: IC50 Values for Inhibition of Cytokine Release PBMCs IL-8
[5] = TNFα, read-out: IC50 Values for Inhibition of Cytokine Release PBMCs TNFα
[6] = IL-8, read-out: IC50 Values for Inhibition of Cytokine Release dU937 cells IL-8
[7] = TNFα, method describes REC50 relative to BIRB796, read-out: IC50 Values for Inhibition of Cytokine Release dU937 cells TNFα

| SMILES | IC50 (PBMCs [1]; [4]) [nM] | IC50 (PBMCs [1]; [5]) [nM] | IC50 (GSK 3α) [µM] | IC50 (Syk) [nM] | IC50 (d-U937 cells; [6]) [nM] | IC50 (d-U937 cells; [7]) [nM] | IC50 (PBMCs [2]) [nM] | IC50 (c-Src) [nM] | IC50 (HT29 cells) [nM] | IC50 [3] [nM] |
| --- | --- | --- | --- | --- | --- | --- | --- | --- | --- | --- |
| Cc1ccc(-n2nc([Si](C)(C)C)cc2NC(=O)Nc2ccc(Oc3ccnc(Nc4ccccc4)n3)c3ccccc23)cc1 [Example 1, 1-(4-((2-(Phenylamino)pyrimidin-4-yl)oxy)naphthalen-1-yl)-3-(1-(p-tolyl)-3-(trimethylsilyl)-1H-pyrazol-5-yl)urea] | 14.2 | 2.8 | > 10 | > 1000 | 4.6 | 2.5 | 274 | 77 | 15.6 | 152 |
| COc1ccc(-n2nc([Si](C)(C)C)cc2NC(=O)Nc2ccc(Oc3ccnc(Nc4ccccc4)n3)c3ccccc23)cn1 [Example 2, 1-(1-(6-Methoxypyridin-3-yl)-3-(trimethylsilyl)-1H-pyrazol-5-yl)-3-(4-((2-(phenylamino)pyrimidin-4-yl)oxy)naphthalen-1-yl)urea] | 8.4 | 2.7 | 3.24 | > 1000 | 2.6 | 1.8 | 128 | 93 | 12.1 | 329 |
| C[Si](C)(C)c1cc(NC(=O)Nc2ccc(Oc3ccnc(Nc4ccccc4)n3)c3ccccc23)n(-c2ccc(OCCN3CCOCC3)cc2)n1 [Example 3, 1-(1-(4-(2-Morpholinoethoxy)phenyl)-3-(trimethylsilyl)-1H-pyrazol-5-yl)-3-(4-((2-(phenylamino)pyrimidin-4-yl)oxy)naphthalen-1-yl)urea] | 9.4 |  | 4.99 | > 1000 | 18 | 2 | 76.8 | 227 | 13.4 | 347 |
| Cc1ccc(-n2nc([Si](C)(C)C)cc2NC(=O)Nc2ccc(Oc3ccnc(Nc4cccc(OCCN5CCOCC5)c4)n3)c3ccccc23)cc1 [Example 6, 1-(4-((2-((3-(2-Morpholinoethoxy)phenyl)amino)pyrimidin-4-yl)oxy)naphthalen-1-yl)-3-(1-(p-tolyl)-3-(trimethylsilyl)-1H-pyrazol-5-yl)urea] | 4.8 | 0.7 | > 2 | 7 | 1.8 | 1.5 | 15.7 | 10 | 8.7 | 314 |
| Cc1ccc(-n2nc([Si](C)(C)C)cc2NC(=O)Nc2ccc(Oc3ccnc(Nc4ccc5[nH]ncc5c4)n3)c3ccccc23)cc1 [Example 7, 1-[4-[2-(1H-Indazol-5-ylamino)pyrimidin-4-yl]oxy-1-naphthyl]-3-[2-(p-tolyl)-5-trimethylsilyl-pyrazol-3-yl]urea] | 12 | 3.3 | > 10 | 673 | 8.6 | 1.9 | 47.5 | 45 | 16.6 | 380 |
| Cc1ccc(-n2nc([Si](C)(C)C)cc2NC(=O)Nc2ccc(Oc3ccnc(Nc4cc(C)c5[nH]ncc5c4)n3)c3ccccc23)cc1 [Example 9, 1-(4-((2-((7-Methyl-1H-indazol-5-yl)amino)pyrimidin-4-yl)oxy)naphthalen-1-yl)-3-(1-(p-tolyl)-3-(trimethylsilyl)-1H-pyrazol-5-yl)urea] | 3.4 |  | > 10 | 520 | 2.6 | 1.2 | 41.2 | 135 | 4.8 | 358 |
| Cc1ccc(-n2nc([Si](C)(C)C)cc2NC(=O)Nc2ccc(Oc3ccnc(Nc4ccc5c(c4)NC(=O)C5)n3)c3ccccc23)cc1 [Example 10, 1-(4-((2-((2-Oxoindolin-6-yl)amino)pyrimidin-4-yl)oxy)naphthalen-1-yl)-3-(1-(p-tolyl)-3-(trimethylsilyl)-1H-pyrazol-5-yl)urea] | 3.5 |  | > 10 | 990 | 2 | 1.6 | 196 | 19 | 5 | 541 |
| COc1cc(Nc2nccc(Oc3ccc(NC(=O)Nc4cc([Si](C)(C)C)nn4-c4ccc(C)cc4)c4ccccc34)n2)cc(OCCN2CCOCC2)c1 [Example 13, 1-(4-((2-((3-Methoxy-5-(2-morpholinoethoxy)phenyl)amino)pyrimidin-4-yl)oxy)naphthalen-1-yl)-3-(1-(p-tolyl)-3-(trimethylsilyl)-1H-pyrazol-5-yl)urea] | 2.3 |  | 5.64 | 106 | 1.4 | 1.1 | 3.9 | 170 | 4.3 | > 1000 |
